Results on two sequences are retold here after patent publication US9365633B2, “Peptide preparations and peptides with antitumour activity” (Instytut Medycyny Doswiadczalnej I Klinicznej Pan, priority 2010, dated 2016).

In the experiment the test system is melanoma cells of the line MeW 155. Nature of the experiment: Effect of synthetic peptides on proliferation of melanoma cells, 3 day culture in 96-well plate. Type of experiment: cell-based. Particulars: 3 days of culture; for cell numbers, % of the control: 4000 cells per well; for toxicity to MeW 155 melanoma cells: MeW 155, 0.1 mM. As for the experimental part: The synthetic peptides were examined for their effect on the proliferation of melanoma cells of the line MeW 155. The culture was maintained under standard conditions for 3 days with 4000 cells per well of a 96-well culture plate. After three days, the numbers of cells in the control group increased to 120 000. It turned out that after 3 days of culture, peptide 91 at a concentration of 0.004 mM decreased cell numbers to 55% of the control, and a 0.02 mM concentration decreased the cells to 35%, whereas 0.1 mM was toxic to MeW 155 cells. Peptide 92 at 0.004 mM decreased the number of tumour cells to 65% of the control, a 0.02 mMol concentration decreased the number of cells to 49%, and a concentration of 0.1 mM was toxic to melanoma cells.

As for YRPWGSGSGFG [peptide 91], the “toxicity to MeW 155 melanoma cells” value is given as “toxic”. Further, where the note is “MeW 155, 0.004 mM”, the “cell numbers, % of the control” value is 55%. Besides, under “MeW 155, 0.02 mM”, the “cell numbers, % of the control” value turned out to be 35%.
For YRPWGSGSGF [compound 92], the “toxicity to MeW 155 melanoma cells” value is “toxic”. The “cell numbers, % of the control” value (MeW 155, 0.004 mM) came out at 65%. For the same sequence, the “cell numbers, % of the control” value (MeW 155, 0.02 mM) was found to be 49%.
